Assay results: ChEMBL document CHEMBL5352400, “Design, synthesis and biological evaluation of novel coumarin derivatives as multifunctional ligands for the treatment of Alzheimer's disease” (Eur J Med Chem, 2022)
pIC50, pKi: −log10 of the molar value. Calls of active or inactive are those of the source. The rule behind the calls is not given here.

How the values were obtained:
Acetylcholinesterase [1] = target: T1, Acetylcholinesterase (Electrophorus electricus, UniProt O42275); assay: Inhibition of electric eel AChE using acetylthiocholine iodine as substrate preincubated for 20 mins followed by substrate addition and measured after 20 mins by DTNB reagent based Ellman's method
Cholinesterase = Cholinesterase (Equus caballus, UniProt P81908); assay: Inhibition of equine serum BuChE using butylthiocholine iodine as substrate preincubated for 20 mins followed by substrate addition and measured after 20 mins by DTNB reagent based Ellman's method
[2] = Selectivity index, ratio of IC50 for inhibition of equine serum BuChE to IC50 for inhibition of electric eel AChE
Beta-secretase 1 [3] = target: T2, Beta-secretase 1 (Homo sapiens, UniProt P56817); assay: Inhibition of recombinant human BACE1 using fluorogenic polypeptide Mca-SEVNLDAEFRK(Dpn)RRNH2 as substrate at 10 uM incubated for 60 mins by FRET assay relative to control
[4] = Cytotoxicity in human HepG2 cells assessed as reduction in cell viability incubated for 48 hrs by MTT assay; assay type: toxicity, cell-based
[5] = Cytotoxicity in human SH-SY5Y cells assessed as reduction in cell viability incubated for 48 hrs by MTT assay; assay type: toxicity, cell-based
[6] = target: Glycogen synthase kinase-3 beta (Homo sapiens, UniProt P49841); assay: Inhibition of GSK-3beta (unknown origin)
Beta-secretase 1 [7] = target: T2, Beta-secretase 1; assay: Inhibition of BACE1 (unknown origin)
Beta-secretase 1 [8] = target: T2, Beta-secretase 1; assay: Inhibition of recombinant human BACE1 using fluorogenic polypeptide Mca-SEVNLDAEFRK(Dpn)RRNH2 as substrate incubated for 60 mins by FRET assay
[9] = target: Acetylcholinesterase (Electrophorus electricus) (UniProt O42275); assay: Competitive inhibition of electric eel AChE assessed as increase in slope using acetylthiocholine iodine as substrate preincubated for 20 mins followed by concentrations of substrate addition and measured after 20 mins by Lineweaver-Burk plot analysis; conditions: time 40.0 min
Acetylcholinesterase [10] = target: T1, Acetylcholinesterase; assay: Competitive inhibition of electric eel AChE assessed as dissociation constant using acetylthiocholine as substrate by Lineweaver-Burk plot analysis
[11] = Effective permeability of the compound in PBS buffer at pH 7.4/EtOH buffer (7:3) incubated for 20 hrs by UV-plate spectroscopy based PAMPA-BBB assay
[12] = Cytotoxicity in human HL7702 cells assessed as reduction in cell viability incubated for 48 hrs by MTT assay; assay type: toxicity, cell-based; conditions: HL7702 (L02) cells
[13] = Acute toxicity in KM mouse assessed as body weight change upto 1000 mg/kg,ip and measured after 14 days; assay type: organism-based; conditions: in vivo, 336 h, time 14 day
[14] = Acute toxicity in KM mouse assessed as change in survival rate upto 1000 mg/kg,ip and measured after 14 days; assay type: organism-based; conditions: in vivo, 336 h, time 14 day
[15] = Acute toxicity in KM mouse assessed as change in behavior upto 1000 mg/kg,ip and measured after 14 days; assay type: organism-based; conditions: in vivo, 336 h, time 14 day

T1 sequence (O42275 whole entry): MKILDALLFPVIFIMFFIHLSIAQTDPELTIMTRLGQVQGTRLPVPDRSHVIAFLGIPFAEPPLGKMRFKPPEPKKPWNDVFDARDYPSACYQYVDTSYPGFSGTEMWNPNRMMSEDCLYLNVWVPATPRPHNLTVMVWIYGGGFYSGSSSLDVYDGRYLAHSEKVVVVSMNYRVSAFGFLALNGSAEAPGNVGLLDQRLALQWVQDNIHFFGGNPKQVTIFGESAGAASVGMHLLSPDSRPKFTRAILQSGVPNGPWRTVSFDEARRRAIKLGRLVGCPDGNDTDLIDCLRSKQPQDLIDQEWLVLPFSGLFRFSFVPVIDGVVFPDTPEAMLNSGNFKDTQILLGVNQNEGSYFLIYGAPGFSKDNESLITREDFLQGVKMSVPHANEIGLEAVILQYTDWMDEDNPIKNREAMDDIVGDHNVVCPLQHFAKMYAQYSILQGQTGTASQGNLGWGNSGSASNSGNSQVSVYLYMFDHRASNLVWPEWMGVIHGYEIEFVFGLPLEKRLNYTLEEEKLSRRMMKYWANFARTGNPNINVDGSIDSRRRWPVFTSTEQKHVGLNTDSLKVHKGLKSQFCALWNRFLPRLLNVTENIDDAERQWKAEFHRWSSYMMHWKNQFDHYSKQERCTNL
T2 sequence (P56817 whole entry): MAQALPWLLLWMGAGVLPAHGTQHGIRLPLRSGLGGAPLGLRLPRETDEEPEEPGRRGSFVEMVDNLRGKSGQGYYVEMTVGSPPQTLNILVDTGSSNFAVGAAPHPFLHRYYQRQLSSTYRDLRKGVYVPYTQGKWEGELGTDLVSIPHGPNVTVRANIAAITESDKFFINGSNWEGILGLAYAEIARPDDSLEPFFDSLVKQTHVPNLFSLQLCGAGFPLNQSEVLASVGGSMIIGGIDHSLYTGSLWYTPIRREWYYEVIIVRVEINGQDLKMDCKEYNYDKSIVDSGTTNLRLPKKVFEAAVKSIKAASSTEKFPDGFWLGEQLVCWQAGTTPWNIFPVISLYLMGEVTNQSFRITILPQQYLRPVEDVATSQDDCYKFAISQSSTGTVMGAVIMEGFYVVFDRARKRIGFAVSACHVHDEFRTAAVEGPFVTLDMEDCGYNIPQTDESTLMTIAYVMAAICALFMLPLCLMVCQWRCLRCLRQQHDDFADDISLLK
Cholinesterase, sequence (P81908 whole entry): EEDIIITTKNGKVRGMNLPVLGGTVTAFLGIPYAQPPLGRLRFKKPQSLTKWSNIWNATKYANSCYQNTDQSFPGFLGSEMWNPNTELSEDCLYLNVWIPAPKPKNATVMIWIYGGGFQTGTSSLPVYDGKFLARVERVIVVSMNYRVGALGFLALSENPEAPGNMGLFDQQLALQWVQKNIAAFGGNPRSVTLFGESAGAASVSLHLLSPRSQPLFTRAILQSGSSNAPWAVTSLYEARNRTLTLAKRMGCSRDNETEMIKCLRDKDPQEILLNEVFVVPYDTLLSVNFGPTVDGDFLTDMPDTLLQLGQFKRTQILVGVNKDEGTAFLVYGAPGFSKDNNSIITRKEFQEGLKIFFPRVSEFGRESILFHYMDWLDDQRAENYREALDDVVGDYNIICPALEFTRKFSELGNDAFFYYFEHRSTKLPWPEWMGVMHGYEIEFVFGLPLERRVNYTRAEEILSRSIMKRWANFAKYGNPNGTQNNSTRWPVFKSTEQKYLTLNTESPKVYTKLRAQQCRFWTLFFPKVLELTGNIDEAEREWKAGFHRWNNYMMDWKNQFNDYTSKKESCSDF
Glycogen synthase kinase-3 beta, sequence (P49841 whole entry): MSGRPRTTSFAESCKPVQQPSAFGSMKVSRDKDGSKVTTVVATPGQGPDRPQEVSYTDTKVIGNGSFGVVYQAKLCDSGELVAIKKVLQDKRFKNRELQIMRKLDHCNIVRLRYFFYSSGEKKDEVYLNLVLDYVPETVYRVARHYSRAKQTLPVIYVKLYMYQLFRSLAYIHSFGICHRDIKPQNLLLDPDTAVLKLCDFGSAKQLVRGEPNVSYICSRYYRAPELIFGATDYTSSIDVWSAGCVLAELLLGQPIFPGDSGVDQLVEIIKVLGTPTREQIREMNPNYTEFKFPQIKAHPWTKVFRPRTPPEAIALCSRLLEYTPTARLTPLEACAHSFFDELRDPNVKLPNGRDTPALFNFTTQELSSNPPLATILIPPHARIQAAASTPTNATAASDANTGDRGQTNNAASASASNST
Acetylcholinesterase (Electrophorus electricus), sequence (O42275 24-633 limits assumed): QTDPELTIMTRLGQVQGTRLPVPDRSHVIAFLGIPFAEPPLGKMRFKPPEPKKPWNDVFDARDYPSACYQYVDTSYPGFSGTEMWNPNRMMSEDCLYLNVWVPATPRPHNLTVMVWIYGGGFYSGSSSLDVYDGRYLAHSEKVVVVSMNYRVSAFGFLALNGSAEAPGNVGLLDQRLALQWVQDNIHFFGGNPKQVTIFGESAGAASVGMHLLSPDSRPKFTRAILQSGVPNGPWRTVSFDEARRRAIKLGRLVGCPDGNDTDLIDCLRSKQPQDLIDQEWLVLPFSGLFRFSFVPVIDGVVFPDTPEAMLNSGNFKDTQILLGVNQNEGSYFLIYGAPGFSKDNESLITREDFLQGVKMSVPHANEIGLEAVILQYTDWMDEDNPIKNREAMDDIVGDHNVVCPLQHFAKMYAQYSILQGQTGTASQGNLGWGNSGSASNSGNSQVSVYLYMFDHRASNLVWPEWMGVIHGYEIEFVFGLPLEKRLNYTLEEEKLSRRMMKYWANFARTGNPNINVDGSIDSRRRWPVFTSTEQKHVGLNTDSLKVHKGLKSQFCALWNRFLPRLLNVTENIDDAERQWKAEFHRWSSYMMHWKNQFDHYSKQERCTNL

| SMILES | pIC50 (Acetylcholinesterase [1]) | pIC50 (Cholinesterase) | Ratio IC50 [2] | inhibition (Beta-secretase 1 [3]) | IC50 at 48 h [4] | IC50 at 48 h [5] | pIC50 [6] | pIC50 (Beta-secretase 1 [7]) | pIC50 (Beta-secretase 1 [8]) | inhibition [9] | pKi (Acetylcholinesterase [10]) | Papp at 20 h [11] | IC50 at 48 h [12] | Activity [13] | Activity [14] | Activity [15] |
| --- | --- | --- | --- | --- | --- | --- | --- | --- | --- | --- | --- | --- | --- | --- | --- | --- |
| O=c1cc(OCCCN2CCC(CNCc3ccccc3F)CC2)c2ccc(-c3cccnc3)cc2o1 | 4.97 | 4.51 | 2.91 | 67.2% | 4.26 µM | 6.49 µM |  |  |  |  |  |  |  |  |  |  |
| CC(C)=CC(O)C/C(C)=C/COc1c2ccoc2cc2oc(=O)ccc12 (configuration not stated) [NOTOPTEROL] | < 4.00 | < 4.00 |  | 10.2% | > 20 µM | > 20 µM | 6.00 | 4.58 | 4.58 |  |  |  |  |  |  |  |
| O=c1cc(OCCCNC2CCN(Cc3ccccc3)CC2)c2ccc(-c3cccnc3)cc2o1 | 5.88 | 4.49 | 24.6 | 86.8% | 10.2 µM | 10.7 µM |  |  | 5.91 | Active | 5.58 | 22.8 ×10⁻⁶ cm/s | 34.7 µM | Non-Toxic | Non-Toxic | Non-Toxic |
| O=c1cc(OCCCN2CCC(NCc3ccccc3)CC2)c2ccc(-c3cccnc3)cc2o1 | 5.03 | 4.67 | 2.3 | 51.4% | > 20 µM | > 20 µM |  |  |  |  |  |  |  |  |  |  |
| O=c1cc(OCCCN2CCC(NCc3ccccc3)CC2)c2ccc(-c3ccc(F)nc3)cc2o1 | 5.45 | 4.35 | 12.5 |  | 8.49 µM | 12.2 µM |  |  |  |  |  |  |  |  |  |  |
| O=c1cc(OCCCNC2CCN(Cc3ccccc3)CC2)c2ccc(-c3ccc(F)cc3)cc2o1 | 4.46 | < 4.30 | > 1.46 |  | 9.14 µM | 6.69 µM |  |  |  |  |  |  |  |  |  |  |
| O=c1cc(OCCCN2CCC(NCc3ccccc3F)CC2)c2ccc(-c3cccnc3)cc2o1 | 4.94 | < 4.30 | > 4.31 |  | 15.1 µM | 19.1 µM |  |  |  |  |  |  |  |  |  |  |
| O=c1cc(OCCCN2CCC(NCc3ccccc3)CC2)c2ccc(Br)cc2o1 | 4.64 | 4.45 | 1.58 | 72.8% | 11.8 µM | > 20 µM |  |  |  |  |  |  |  |  |  |  |
| O=c1cc(OCCCN2CCC(NCc3ccc(F)cc3)CC2)c2ccc(-c3cccnc3)cc2o1 | 4.59 | < 4.30 | > 1.93 | 22.1% | > 20 µM | 10.9 µM |  |  |  |  |  |  |  |  |  |  |
| O=c1cc(OCCCN2CCC(NCc3cccc([N+](=O)[O-])c3)CC2)c2ccc(-c3cccnc3)cc2o1 | 4.44 | < 4.30 | > 1.37 | 46.1% | 9.29 µM | 8.37 µM |  |  |  |  |  |  |  |  |  |  |
| COc1cccc(CNC2CCN(CCCOc3cc(=O)oc4cc(-c5cccnc5)ccc34)CC2)c1 | 4.91 | 4.95 | > 4.03 | 48.8% | 11.4 µM | 19.3 µM |  |  |  |  |  |  |  |  |  |  |
| COc1cccc(/C=N/C2CCN(Cc3ccccc3)CC2)c1OC |  |  |  |  |  |  | < 4.82 |  |  |  |  |  |  |  |  |  |
| O=c1cc(OCCCN2CCC(NCc3ccsc3)CC2)c2ccc(-c3cccnc3)cc2o1 | 5.48 | 5.00 | 3.03 | 64.7% | 14.1 µM | 14.2 µM |  |  |  |  |  | 15.4 ×10⁻⁶ cm/s | 36.2 µM |  |  |  |
| O=c1cc(OCCCN2CCOCC2)c2ccc(-c3cccnc3)cc2o1 | 4.81 | < 4.30 | > 3.19 |  | > 20 µM | > 20 µM |  |  |  |  |  |  |  |  |  |  |
| Nc1c2c(nc3ccccc13)CCCC2 [TACRINE] |  |  |  |  |  |  |  |  |  |  |  | 8.04 ×10⁻⁶ cm/s |  |  |  |  |
| O=c1cc(OCCCNC2CCN(Cc3ccccc3)CC2)c2ccc(-c3ccnc(F)c3)cc2o1 | 5.67 | < 4.30 | > 23.4 |  | 5.95 µM | 5.56 µM |  |  |  |  |  |  |  |  |  |  |

| SMILES | pIC50 (Acetylcholinesterase [1]) | pIC50 (Cholinesterase) | Ratio IC50 [2] | inhibition (Beta-secretase 1 [3]) | IC50 at 48 h [4] | IC50 at 48 h [5] | pIC50 [6] | pIC50 (Beta-secretase 1 [7]) | pIC50 (Beta-secretase 1 [8]) | inhibition [9] | pKi (Acetylcholinesterase [10]) | Papp at 20 h [11] | IC50 at 48 h [12] | Activity [13] | Activity [14] | Activity [15] |
| --- | --- | --- | --- | --- | --- | --- | --- | --- | --- | --- | --- | --- | --- | --- | --- | --- |
| O=c1cc(OCCCNC2CCN(Cc3ccccc3)CC2)c2ccc(-c3ccc(F)nc3)cc2o1 | 5.76 | < 4.30 | > 29 |  | 3.93 µM | 5.75 µM |  |  |  |  |  |  |  |  |  |  |
| Cc1cccc(CNC2CCN(CCCOc3cc(=O)oc4cc(-c5cccnc5)ccc34)CC2)c1 | 4.78 | 4.73 | 1.12 |  | 13.1 µM | 12 µM |  |  |  |  |  |  |  |  |  |  |
| Cc1ccc(CNC2CCN(CCCOc3cc(=O)oc4cc(-c5cccnc5)ccc34)CC2)cc1 | 4.85 | 4.79 | 1.15 | 36.4% | 9.93 µM | 16.5 µM |  |  |  |  |  |  |  |  |  |  |
| N#Cc1cccc(CNC2CCN(CCCOc3cc(=O)oc4cc(-c5cccnc5)ccc34)CC2)c1 | 5.14 | < 4.30 | > 6.87 | 89.5% | 3.26 µM | 12.4 µM |  |  |  |  |  |  |  |  |  |  |
| CN(Cc1ccccc1)C1CCN(CCCOc2cc(=O)oc3cc(-c4ccc(F)cc4)ccc23)CC1 | 5.34 | < 4.30 | > 11 | 70.9% | 3.37 µM | 4.88 µM |  |  |  |  |  |  |  |  |  |  |
| O=C(Nc1cc(-c2ccc3c(OCCCN4CCC(NCc5ccccc5)CC4)cc(=O)oc3c2)ccn1)C1CC1 | 5.01 | 4.54 | 2.99 | 34.7% | 3.34 µM | 1.87 µM |  |  |  |  |  |  |  |  |  |  |
| O=C(Nc1cc(-c2ccc3c(OCCCNC4CCN(Cc5ccccc5)CC4)cc(=O)oc3c2)ccn1)c1ccccc1 | 4.87 | < 4.30 | > 3.7 |  | 1.91 µM | 1.5 µM |  |  |  |  |  |  |  |  |  |  |
| O=C(Nc1cc(-c2ccc3c(OCCCNC4CCN(Cc5ccccc5)CC4)cc(=O)oc3c2)ccn1)C1CC1 | 5.17 | < 4.30 | > 7.41 | 30.9% | 3.65 µM | 3.41 µM |  |  |  |  |  |  |  |  |  |  |
| CN(Cc1ccccc1)C1CCN(CCCOc2cc(=O)oc3cc(-c4ccc(F)nc4)ccc23)CC1 | 5.39 | < 4.30 | > 12.3 | 61.3% | 10.4 µM | 15.6 µM |  |  |  |  |  |  |  |  |  |  |
| C[C@@]1(c2cc(-c3cncnc3)c(F)cc2F)CCSC(N)=N1 |  |  |  | 80.3% |  |  |  |  |  |  |  |  |  |  |  |  |
| O=c1cc(OCCCN2CCC(NCc3ccc(F)c(F)c3)CC2)c2ccc(-c3cccnc3)cc2o1 | 4.90 | 4.64 | 1.78 | 93.8% | 9.72 µM | 5.36 µM |  |  | 5.74 |  |  | 9.4 ×10⁻⁶ cm/s | 8.05 µM |  |  |  |
| O=c1cc(OCCCN2CCC(NCc3ccccc3)CC2)c2ccc(-c3ccncc3)cc2o1 | 4.77 | < 4.30 | > 2.97 | 49.4% | 13.9 µM | 16.4 µM |  |  |  |  |  |  |  |  |  |  |
| COc1ccc(CNC2CCN(CCCOc3cc(=O)oc4cc(-c5cccnc5)ccc34)CC2)cc1 | 4.94 | 4.95 | 0.982 | 82% | 9.12 µM | 6.81 µM |  |  |  |  |  |  |  |  |  |  |
| O=c1cc(OCCCNC2CCN(Cc3ccccc3)CC2)c2ccc(-c3ccncc3)cc2o1 | 5.65 | < 4.30 | > 22.3 |  | 10.6 µM | 10.2 µM |  |  |  |  |  |  |  |  |  |  |
| O=c1cc(OCCCN2CCC(NCc3cccc(F)c3)CC2)c2ccc(-c3cccnc3)cc2o1 | 5.00 | 4.55 | 2.82 | 34% | 14.6 µM | 14.4 µM |  |  |  |  |  |  |  |  |  |  |
